According to patent US10519134B2, “Pyrazole compounds and methods of making and using same” (Lundbeck La Jolla Research Center, Inc., priority 2015, dated 2019):

How the values were obtained:
MAGL [1] = target: T1, MAGL (Mus musculus, UniProt O35678); assay: Mouse brain proteomes from inhibitor treated mice (oral gavage, sacrificed 4 h after administration); format: in vivo; settings: read-out: MAGL % inh. 5 mg/kg
T1 construct: Proteomes (mouse brain membrane fraction or cell lysates); from tissue; host or cells: mouse brain membrane fraction (or cell lysates)
T1 sequence (O35678 1-303): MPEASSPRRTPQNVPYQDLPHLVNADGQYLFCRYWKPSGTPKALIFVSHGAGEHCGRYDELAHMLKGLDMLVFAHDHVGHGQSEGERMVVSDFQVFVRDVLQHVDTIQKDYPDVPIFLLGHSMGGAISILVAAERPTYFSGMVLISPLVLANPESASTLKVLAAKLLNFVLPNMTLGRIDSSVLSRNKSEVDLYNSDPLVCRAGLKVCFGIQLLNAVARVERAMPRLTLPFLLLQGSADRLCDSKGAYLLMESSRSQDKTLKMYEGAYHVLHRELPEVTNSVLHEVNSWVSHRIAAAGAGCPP
Method in brief: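 Brains were collected 4 h after oral gavage dosing of wild-type C57Bl/6J mice, vehicle polyethylene glycol. Proteomes from these brains were then analyzed for MAGL and other serine hydrolase activity.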

FAAH = target: T2, FAAH (Mus musculus, UniProt O08914); assay: In vitro competitive activity-based protein profiling (mouse), FAAH gel band; format: biochemical; settings: for inhibition at 1 µM: read-out: FAAH % inh. 1 μM; for IC50: mouse
T2 construct: Proteomes (mouse brain membrane fraction or cell lysates); from tissue; host or cells: mouse brain membrane fraction (or cell lysates)
T2 sequence (O08914 1-579): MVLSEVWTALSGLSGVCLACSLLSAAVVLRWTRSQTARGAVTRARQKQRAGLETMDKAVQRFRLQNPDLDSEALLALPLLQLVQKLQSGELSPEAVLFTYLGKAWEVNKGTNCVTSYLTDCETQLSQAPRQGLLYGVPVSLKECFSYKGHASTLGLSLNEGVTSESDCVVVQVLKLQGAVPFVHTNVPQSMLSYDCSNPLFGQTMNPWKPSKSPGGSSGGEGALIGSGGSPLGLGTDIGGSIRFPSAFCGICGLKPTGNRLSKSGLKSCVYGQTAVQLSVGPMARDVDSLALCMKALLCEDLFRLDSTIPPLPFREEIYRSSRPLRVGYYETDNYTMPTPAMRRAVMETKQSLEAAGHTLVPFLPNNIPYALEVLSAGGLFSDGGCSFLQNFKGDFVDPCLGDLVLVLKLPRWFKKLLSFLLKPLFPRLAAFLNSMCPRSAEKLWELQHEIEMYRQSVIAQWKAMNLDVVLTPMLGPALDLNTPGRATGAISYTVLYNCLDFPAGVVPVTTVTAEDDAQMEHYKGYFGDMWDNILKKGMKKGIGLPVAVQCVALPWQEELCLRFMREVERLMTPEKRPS
Method in brief: (§1)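 Residual enzyme activity is taken from in-gel fluorescence after SDS-PAGE. Proteome from mouse brain membranes or cell lysates (total protein 1.0 mg/mL) sees inhibitor for 30 min, then FP-Rh or HT-01 probe (50 μM DMSO stock) for 30 min, both steps at 37 °C.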

MAGL [2] = target: T1, MAGL; assay: In vitro competitive activity-based protein profiling (mouse), MAGL gel band; format: biochemical; settings: for inhibition at 1 µM: read-out: MAGL % inh. 1 μM; for IC50: mouse
Method in brief: as §1

MAGL [3] = target: T3, MAGL (Homo sapiens, UniProt Q99685); assay: In vitro competitive activity-based protein profiling (human), MAGL gel band; format: biochemical
T3 construct: Proteomes (human prefrontal cortex or cell membrane fractions); from tissue; host or cells: human prefrontal cortex (or cell membrane fractions)
T3 sequence (Q99685 1-303): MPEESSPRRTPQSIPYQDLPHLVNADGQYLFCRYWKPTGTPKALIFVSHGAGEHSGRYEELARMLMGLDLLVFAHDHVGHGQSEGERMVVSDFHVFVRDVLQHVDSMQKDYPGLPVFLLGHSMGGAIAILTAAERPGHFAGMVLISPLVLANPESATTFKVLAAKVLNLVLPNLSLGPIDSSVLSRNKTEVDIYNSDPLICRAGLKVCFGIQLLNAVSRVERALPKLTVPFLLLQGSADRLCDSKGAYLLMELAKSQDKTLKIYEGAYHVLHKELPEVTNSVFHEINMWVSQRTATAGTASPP
Method in brief: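 Human prefrontal cortex or cell membrane proteomes (1.0-2.0 mg/mL protein) preincubated with inhibitors 30 min at 37° C, then labelled with FP-Rh or JW912 probe 30 min at room temperature. Residual MAGL activity read as fluorescent gel-band intensity after SDS-PAGE.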

inhibition at 5 mg/kg (MAGL [1]) [%] | inhibition at 1 µM (FAAH) [%] | inhibition at 1 µM (MAGL [2]) [%] | IC50 (MAGL [3]) [nM] | IC50 (FAAH) [nM] | IC50 (MAGL [2]) [nM] | SMILES
0 to 25 | 0 to 25 | ≥ 75 | ≤ 100 | – | – | CS(=O)(=O)Nc1ccn(C(=O)N2CCN(Cc3ccc(C(F)(F)F)cc3-c3nncs3)CC2)n1 [Example 114, N-(1-(4-(2-(1,3,4-thiadiazol-2-yl)-4-(trifluoromethyl)benzyl)piperazine-1-carbonyl)-1H-pyrazol-3-yl)methanesulfonamide]
25 to 50 | 0 to 25 | ≥ 75 | ≤ 100 | 1000 to 10000 | 100 to 1000 | CS(=O)(=O)Nc1ccn(C(=O)N2CCN(Cc3cc(Cl)ccc3N3CCOCC3)CC2)n1 [Example 123, N-(1-(4-(5-chloro-2-morpholinobenzyl)piperazine-1-carbonyl)-1H-pyrazol-3-yl) methanesulfonamide]
0 to 25 | 0 to 25 | ≥ 75 | ≤ 100 | 1000 to 10000 | ≤ 100 | CS(=O)(=O)Nc1ccn(C(=O)N2CCC3(CCCN3Cc3ccc(C(F)(F)F)cc3N3CCCC3)CC2)n1 [Example 125, N-(1-(1-(2-(pyrrolidin-1-yl)-4-(trifluoromethyl)benzyl)-1,8-diazaspiro[4.5]decane-8-carbonyl)-1H-pyrazol-3-yl) methanesulfonamide]
0 to 25 | 0 to 25 | ≥ 75 | ≤ 100 | 1000 to 10000 | 100 to 1000 | CS(=O)(=O)Nc1ccn(C(=O)N2CCC3(CCCN3Cc3ccc(C(F)(F)F)cc3N3C[C@H]4CC[C@@H](C3)O4)CC2)n1 [Example 136, N-(1-(1-(2-((1R,5S)-8-oxa-3-azabicyclo[3.2.1]octan-3-yl)-4-(trifluoromethyl)benzyl)-1,8-diazaspiro[4.5]decane-8-carbonyl)-1H-pyrazol-3-yl) methanesulfonamide]
≥ 75 | 0 to 25 | ≥ 75 | ≤ 100 | 1000 to 10000 | ≤ 100 | CS(=O)(=O)Nc1ccn(C(=O)N2CCN(Cc3ccc(N4CCCC4)c(C(F)(F)F)c3)CC2)n1 [Example 152, N-(1-(4-(4-(pyrrolidin-1-yl)-3-(trifluoromethyl)benzyl)piperazine-1-carbonyl)-1H-pyrazol-3-yl) methanesulfonamide]
≥ 75 | 0 to 25 | ≥ 75 | ≤ 100 | 1000 to 10000 | ≤ 100 | CS(=O)(=O)Nc1ccn(C(=O)N2CCN(Cc3cc(N4CCCC4)cc(C(F)(F)F)c3)CC2)n1 [Example 156, N-(1-(4-(3-(pyrrolidin-1-yl)-5-(trifluoromethyl)benzyl)piperazine-1-carbonyl)-1H-pyrazol-3-yl) methanesulfonamide]
≥ 75 | 0 to 25 | ≥ 75 | ≤ 100 | – | – | CS(=O)(=O)Nc1ccn(C(=O)N2CCN(Cc3ccc(Cl)c(N4CCCC4)c3)CC2)n1 [Example 165, N-(1-(4-(4-chloro-3-(pyrrolidin-1-yl)benzyl)piperazine-1-carbonyl)-1H-pyrazol-3-yl) methanesulfonamide]
≥ 75 | 0 to 25 | ≥ 75 | ≤ 100 | – | – | CS(=O)(=O)Nc1ccn(C(=O)N2CCN(Cc3ccc(C(F)(F)F)cc3N3CCC3)CC2)n1 [Example 175, N-(1-(4-(2-(azetidin-1-yl)-4-(trifluoromethyl)benzyl)piperazine-1-carbonyl)-1H-pyrazol-3-yl) methanesulfonamide]
0 to 25 | 0 to 25 | ≥ 75 | 100 to 1000 | 1000 to 10000 | 100 to 1000 | CS(=O)(=O)Nc1ccn(C(=O)N2CCN(Cc3ccc(C(F)(F)F)cc3N3CCC(C(=O)O)CC3)CC2)n1 [Example 186, 1-(2-((4-(3-(methylsulfonamido)-1H-pyrazole-1-carbonyl)piperazin-1-yl)methyl)-5-(trifluoromethyl)phenyl)piperidine-4-carboxylic acid]
≥ 75 | 0 to 25 | ≥ 75 | ≤ 100 | 1000 to 10000 | ≤ 100 | CS(=O)(=O)Nc1ccn(C(=O)N2CCN(Cc3ccc(C(F)(F)F)cc3N3CCCC3)CC2)n1 [Example 188, N-(1-(4-(2-(pyrrolidin-1-yl)-4-(trifluoromethyl)benzyl)piperazine-1-carbonyl)-1H-pyrazol-3-yl) methanesulfonamide]
25 to 50 | 0 to 25 | ≥ 75 | ≤ 100 | – | – | CS(=O)(=O)Nc1ccn(C(=O)N2CCC3(CCCN3Cc3ccc(C(F)(F)F)cc3N3CC4COCC4C3)CC2)n1 (stereo not shown) [Example 199, N-(1-(1-(2-(tetrahydro-1H-furo[3,4-c]pyrrol-5(3H)-yl)-4-(trifluoromethyl)benzyl)-1,8-diazaspiro[4.5]decane-8-carbonyl)-1H-pyrazol-3-yl) methanesulfonamide]
≥ 75 | 0 to 25 | ≥ 75 | ≤ 100 | – | – | CC1CCCN1c1cc(CN2CCN(C(=O)n3ccc(NS(C)(=O)=O)n3)CC2)ccc1Cl (stereo not shown) [Example 200, N-(1-(4-(4-chloro-3-(2-methylpyrrolidin-1-yl)benzyl)piperazine-1-carbonyl)-1H-pyrazol-3-yl) methanesulfonamide]
≥ 75 | 0 to 25 | ≥ 75 | ≤ 100 | – | – | CS(=O)(=O)Nc1ccn(C(=O)N2CCN(Cc3ccc(Cl)c(N4CCC(F)CC4)c3)CC2)n1 [Example 201, N-(1-(4-(4-chloro-3-(4-fluoropiperidin-1-yl)benzyl)piperazine-1-carbonyl)-1H-pyrazol-3-yl) methanesulfonamide]
0 to 25 | 0 to 25 | ≥ 75 | ≤ 100 | – | – | CS(=O)(=O)Nc1ccn(C(=O)N2CCN(Cc3ccc(Cl)c(N4CCN(C5CC5)CC4)c3)CC2)n1 [Example 202, N-(1-(4-(4-chloro-3-(4-cyclopropylpiperazin-1-yl)benzyl)piperazine-1-carbonyl)-1H-pyrazol-3-yl) methanesulfonamide]
0 to 25 | 0 to 25 | ≥ 75 | ≤ 100 | 1000 to 10000 | ≤ 100 | CS(=O)(=O)Nc1ccn(C(=O)N2CCN(Cc3ccc(Cl)c(N4CC5COCC5C4)c3)CC2)n1 (stereo not shown) [Example 203, N-(1-(4-(4-chloro-3-(tetrahydro-1H-furo[3,4-c]pyrrol-5(3H)-yl)benzyl)piperazine-1-carbonyl)-1H-pyrazol-3-yl) methanesulfonamide]

SMILES | inhibition at 5 mg/kg (MAGL [1]) [%] | inhibition at 1 µM (FAAH) [%] | inhibition at 1 µM (MAGL [2]) [%] | IC50 (MAGL [3]) [nM] | IC50 (FAAH) [nM] | IC50 (MAGL [2]) [nM]
CS(=O)(=O)Nc1ccn(C(=O)N2CCN(Cc3ccc(Cl)c(N4C5CCC4COC5)c3)CC2)n1 [Example 204, N-(1-(4-(3-(3-oxa-8-azabicyclo[3.2.1]octan-8-yl)-4-chlorobenzyl)piperazine-1-carbonyl)-1H-pyrazol-3-yl) methanesulfonamide] | 0 to 25 | 0 to 25 | ≥ 75 | ≤ 100 | 1000 to 10000 | 100 to 1000
